From patent publication US8771665B2 (Cocrystal Discovery, Inc., priority 2010, dated 2014)
Read-outs that look alike come from different tables or passages of the source.

Molecular target: T1, HCV1b NS5B polymerase delta 21 (Hepatitis C virus genotype 1b, UniProt P26663)
T1 construct: purified HCV1b NS5B polymerase delta 21
Test: RNA-Dependent RNA HCV NS5B (Polymerase) Assay and IC50 Determination
Type: biochemical
Summary of the method: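 Purified NS5B Δ21 (0.6 μg) with polyA:U16 template, 10 μM UTP plus α-32P UTP in Tris-HCl pH 7.5, 5 mM MgCl2, 0.5% Triton X-100, 60 min at 23°C with varied compound concentrations. Radiolabelled RNA captured on filters, quantified by phosphorimaging; IC50 from triplicate assays.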

T1 sequence (P26663 2420-2989): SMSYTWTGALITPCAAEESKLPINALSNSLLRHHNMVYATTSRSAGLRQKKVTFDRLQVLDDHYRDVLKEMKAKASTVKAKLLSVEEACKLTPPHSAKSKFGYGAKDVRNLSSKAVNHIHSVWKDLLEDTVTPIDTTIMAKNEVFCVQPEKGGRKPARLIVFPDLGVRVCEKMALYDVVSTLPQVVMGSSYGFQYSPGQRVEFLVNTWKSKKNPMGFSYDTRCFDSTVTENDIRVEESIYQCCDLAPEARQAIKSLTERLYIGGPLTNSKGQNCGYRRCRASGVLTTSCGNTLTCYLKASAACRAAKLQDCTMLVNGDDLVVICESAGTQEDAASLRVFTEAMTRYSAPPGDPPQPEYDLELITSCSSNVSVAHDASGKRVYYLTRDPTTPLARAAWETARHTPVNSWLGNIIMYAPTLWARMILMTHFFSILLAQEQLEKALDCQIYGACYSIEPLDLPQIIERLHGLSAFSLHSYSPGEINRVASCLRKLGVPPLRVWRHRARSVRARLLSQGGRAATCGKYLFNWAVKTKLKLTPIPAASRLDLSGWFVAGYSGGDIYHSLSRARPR

| Compound | IC50 (purified HCV1b NS5B polymerase delta 21, polyA:U16, RT 60 min, triplicate assays) [µM] | IC50 [µM] |
| --- | --- | --- |
| CC1CCC(C2=C(c3cc(-c4ccccc4)sc3C(=O)O)CCN(Cc3ccccc3)C2)CC1 (stereo not shown) [Example 079, 3-[1-Benzyl-5-(4-methyl-cyclohexyl)-1,2,3,6-tetrahydro-pyridin-4-yl]-5-phenyl-thiophene-2-carboxylic acid] | 3 to 10 | – |
| CC1CCC(C2=C(c3cc(-c4ccccc4)sc3C(=O)O)CCN(CCCCc3ccccc3)C2)CC1 (stereo not shown) [Example 080, 3-[5-(4-Methyl-cyclohexyl)-1-(4-phenyl-butyl)-1,2,3,6-tetrahydro-pyridin-4-yl]-5-phenyl-thiophene-2-carboxylic acid] | – | > 10 |
| CC1CCC(C2=C(c3cc(-c4ccccc4)sc3C(=O)O)CCN(CC(=O)O)C2)CC1 (stereo not shown) [Example 082, 3-[1-Carboxymethyl-5-(4-methyl-cyclohexyl)-1,2,3,6-tetrahydro-pyridin-4-yl]-5-phenyl-thiophene-2-carboxylic acid] | – | 3 to 10 |
| CC1CCC(C2=C(c3cc(-c4ccccc4)sc3C(=O)O)CCN(CCC(=O)O)C2)CC1 (stereo not shown) [Example 083, 3-[1-(2-Carboxy-ethyl)-5-(4-methyl-cyclohexyl)-1,2,3,6-tetrahydro-pyridin-4-yl]-5-phenyl-thiophene-2-carboxylic acid] | – | 3 to 10 |
| CC1CCC(C2=C(c3cc(-c4ccccc4)sc3C(=O)O)CCN(C(N)=O)C2)CC1 (stereo not shown) [Example 084, 3-[1-Carbamoyl-5-(4-methyl-cyclohexyl)-1,2,3,6-tetrahydro-pyridin-4-yl]-5-phenyl-thiophene-2-carboxylic acid] | – | < 3 |
| CCNC(=O)N1CCC(c2cc(-c3ccccc3)sc2C(=O)O)=C(C2CCC(C)CC2)C1 (stereo not shown) [Example 085, 3-[1-Ethylcarbamoyl-5-(4-methyl-cyclohexyl)-1,2,3,6-tetrahydro-pyridin-4-yl]-5-phenyl-thiophene-2-carboxylic acid] | – | 3 to 10 |
| CC1CCC(C2=C(c3cc(-c4ccccc4)sc3C(=O)O)CCN(Cc3ccc(Cl)cc3)C2)CC1 (stereo not shown) [Example 086, 3-[1-(4-Chloro-benzyl)-5-(4-methyl-cyclohexyl)-1,2,3,6-tetrahydro-pyridin-4-yl]-5-phenyl-thiophene-2-carboxylic acid] | – | 3 to 10 |
| CC1CCC(C2=C(c3cc(-c4ccccc4)sc3C(=O)O)CCN(Cc3ccccn3)C2)CC1 (stereo not shown) [Example 087, 3-[5-(4-Methyl-cyclohexyl)-1-pyridin-2-ylmethyl-1,2,3,6-tetrahydro-pyridin-4-yl]-5-phenyl-thiophene-2-carboxylic acid] | – | < 3 |
| Cc1cc(C)n2nc(CN3CCC(c4cc(-c5ccccc5)sc4C(=O)O)=C(C4CCC(C)CC4)C3)nc2n1 (stereo not shown) [Example 088, 3-[1-(5,7-Dimethyl-[1,2,4]triazolo[1,5-a]pyrimidin-2-ylmethyl)-5-(4-methyl-cyclohexyl)-1,2,3,6-tetrahydro-pyridin-4-yl]-5-phenyl-thiophene-2-carboxylic acid] | – | < 3 |
| CC1CCC(C2=C(c3cc(-c4ccccc4)sc3C(=O)O)CCN(Cc3cccnc3)C2)CC1 (stereo not shown) [Example 089, 3-[5-(4-Methyl-cyclohexyl)-1-pyridin-3-ylmethyl-1,2,3,6-tetrahydro-pyridin-4-yl]-5-phenyl-thiophene-2-carboxylic acid] | – | < 3 |
| CC1CCC(C2=C(c3cc(-c4ccccc4)sc3C(=O)O)CCN(Cc3ccncc3)C2)CC1 (stereo not shown) [Example 090, 3-[5-(4-Methyl-cyclohexyl)-1-pyridin-4-ylmethyl-1,2,3,6-tetrahydro-pyridin-4-yl]-5-phenyl-thiophene-2-carboxylic acid] | – | < 3 |
| Cc1cc(C)n2nc(CCCN3CCC(c4cc(-c5ccccc5)sc4C(=O)O)=C(C4CCC(C)CC4)C3)nc2n1 (stereo not shown) [Example 091, 3-[1-[3-(5,7-Dimethyl-[1,2,4]triazolo[1,5-a]pyrimidin-2-yl)-propyl]-5-(4-methyl-cyclohexyl)-1,2,3,6-tetrahydro-pyridin-4-yl]-5-phenyl-thiophene-2-carboxylic acid] | – | < 3 |
| CC1CCC(C2=C(c3cc(-c4ccccc4)sc3C(=O)O)CCN(Cc3nc4ncccn4n3)C2)CC1 (stereo not shown) [Example 092, 3-[5-(4-Methyl-cyclohexyl)-1-[1,2,4]triazolo[1,5-a]pyrimidin-2-ylmethyl-1,2,3,6-tetrahydro-pyridin-4-yl]-5-phenyl-thiophene-2-carboxylic acid] | – | 3 to 10 |
| CC1CCC(C2=C(c3cc(-c4ccccc4)sc3C(=O)O)CCN(C(=O)Cc3ccncc3)C2)CC1 (stereo not shown) [Example 093, 3-[5-(4-Methyl-cyclohexyl)-1-(2-pyridin-4-yl-acetyl)-1,2,3,6-tetrahydro-pyridin-4-yl]-5-phenyl-thiophene-2-carboxylic acid] | – | > 10 |
| CC1CCC(C2=C(c3cc(-c4ccccc4)sc3C(=O)O)CCN(C(=O)c3ccncc3)C2)CC1 (stereo not shown) [Example 094, 3-[5-(4-Methyl-cyclohexyl)-1-(pyridine-4-carbonyl)-1,2,3,6-tetrahydro-pyridin-4-yl]-5-phenyl-thiophene-2-carboxylic acid] | – | 3 to 10 |
| CC1CCC(C2=C(c3cc(-c4ccccc4)sc3C(=O)O)CCN(Cc3cn(C)c4ccccc34)C2)CC1 (stereo not shown) [Example 095, 3-[5-(4-Methyl-cyclohexyl)-1-(1-methyl-1H-indol-3-ylmethyl)-1,2,3,6-tetrahydro-pyridin-4-yl]-5-phenyl-thiophene-2-carboxylic acid] | – | 3 to 10 |
| CC1CCC(C2=C(c3cc(-c4ccccc4)sc3C(=O)O)CCN(C(=O)Cc3ccc4ccccc4c3)C2)CC1 (stereo not shown) [Example 096, 3-[5-(4-Methyl-cyclohexyl)-1-(2-naphthalen-2-yl-acetyl)-1,2,3,6-tetrahydro-pyridin-4-yl]-5-phenyl-thiophene-2-carboxylic acid] | – | > 10 |
| CC1CCC(C2=C(c3cc(-c4ccccc4)sc3C(=O)O)CCN(C(=O)Cc3cccc4ccccc34)C2)CC1 (stereo not shown) [Example 097, 3-[5-(4-Methyl-cyclohexyl)-1-(2-naphthalen-1-yl-acetyl)-1,2,3,6-tetrahydro-pyridin-4-yl]-5-phenyl-thiophene-2-carboxylic acid] | – | > 10 |
| CC1CCC(C2=C(c3cc(-c4ccccc4)sc3C(=O)O)CCN(C(=O)c3cn(C)c4ccccc34)C2)CC1 (stereo not shown) [Example 098, 3-[5-(4-Methyl-cyclohexyl)-1-(1-methyl-1H-indole-3-carbonyl)-1,2,3,6-tetrahydro-pyridin-4-yl]-5-phenyl-thiophene-2-carboxylic acid] | – | > 10 |
| CC1CCC(C2=C(c3cc(-c4ccccc4)sc3C(=O)O)CCN(C(=O)c3nn(C)c4ccccc34)C2)CC1 (stereo not shown) [Example 099, 3-[5-(4-Methyl-cyclohexyl)-1-(1-methyl-1H-indazole-3-carbonyl)-1,2,3,6-tetrahydro-pyridin-4-yl]-5-phenyl-thiophene-2-carboxylic acid] | – | 3 to 10 |
| CCOC(=O)c1sc(-c2ccc(NC(=O)c3cscn3)cc2)cc1C1=C(C2CCC(C)CC2)CN(C)CC1 (stereo not shown) [Example 100, 3-[1-Methyl-5-(4-methyl-cyclohexyl)-1,2,3,6-tetrahydro-pyridin-4-yl]-5-{4-[(thiazole-4-carbonyl)-amino]-phenyl}-thiophene-2-carboxylic acid ethyl ester] | – | > 10 |
| CC1CCC(C2=C(c3cc(-c4ccc(NC(=O)c5cscn5)cc4)sc3C(=O)OCOC(=O)C(C)(C)C)CCN(C)C2)CC1 (stereo not shown) [Example 101, 3-[1-Methyl-5-(4-methyl-cyclohexyl)-1,2,3,6-tetrahydro-pyridin-4-yl]-5-{4-[(thiazole-4-carbonyl)-amino]-phenyl}-thiophene-2-carboxylic acid 2,2-dimethyl-propionyloxymethyl ester] | – | > 10 |
| CC(=O)OCOC(=O)c1sc(-c2ccc(NC(=O)c3cscn3)cc2)cc1C1=C(C2CCC(C)CC2)CN(C)CC1 (stereo not shown) [Example 102, 3-[1-Methyl-5-(4-methyl-cyclohexyl)-1,2,3,6-tetrahydro-pyridin-4-yl]-5-{4-[(thiazole-4-carbonyl)-amino]-phenyl}-thiophene-2-carboxylic acid acetoxymethyl ester] | – | > 10 |
| CC1CCC(C2=C(c3cc(-c4ccc(NC(=O)c5cscn5)cc4)sc3C(=O)OCCN(C)C)CCN(C)C2)CC1 (stereo not shown) [Example 103, 3-[1-Methyl-5-(4-methyl-cyclohexyl)-1,2,3,6-tetrahydro-pyridin-4-yl]-5-{4-[(thiazole-4-carbonyl)-amino]-phenyl}-thiophene-2-carboxylic acid 2-dimethylamino-ethyl ester] | – | < 3 |
| CCOC(=O)OC(C)OC(=O)c1sc(-c2ccc(NC(=O)c3cscn3)cc2)cc1C1=C(C2CCC(C)CC2)CN(C)CC1 (stereo not shown) [Example 104, 3-[1-Methyl-5-(4-methyl-cyclohexyl)-1,2,3,6-tetrahydro-pyridin-4-yl]-5-{4-[(thiazole-4-carbonyl)-amino]-phenyl}-thiophene-2-carboxylic acid 1-ethoxycarbonyloxy-ethyl ester] | – | > 10 |
| CCCC(=O)OCOC(=O)c1sc(-c2ccc(NC(=O)c3cscn3)cc2)cc1C1=C(C2CCC(C)CC2)CN(C)CC1 (stereo not shown) [Example 105, 3-[1-Methyl-5-(4-methyl-cyclohexyl)-1,2,3,6-tetrahydro-pyridin-4-yl]-5-{4-[(thiazole-4-carbonyl)-amino]-phenyl}-thiophene-2-carboxylic acid butyryloxymethyl ester] | – | 3 to 10 |
| CC1CCC(C2=C(c3cc(-c4ccc(NC(=O)c5cscn5)cc4)sc3C(=O)OCOC(=O)OC(C)C)CCN(C)C2)CC1 (stereo not shown) [Example 106, 3-[1-Methyl-5-(4-methyl-cyclohexyl)-1,2,3,6-tetrahydro-pyridin-4-yl]-5-{4-[(thiazole-4-carbonyl)-amino]-phenyl}-thiophene-2-carboxylic acid isopropoxycarbonyloxymethyl ester] | – | > 10 |
| CCOC(=O)OCOC(=O)c1sc(-c2ccc(NC(=O)c3cscn3)cc2)cc1C1=C(C2CCC(C)CC2)CN(C)CC1 (stereo not shown) [Example 107, 3-[1-Methyl-5-(4-methyl-cyclohexyl)-1,2,3,6-tetrahydro-pyridin-4-yl]-5-{4-[(thiazole-4-carbonyl)-amino]-phenyl}-thiophene-2-carboxylic acid ethoxycarbonyloxymethyl ester] | – | < 3 |
